Laboratory results from patent US11161830B2, “4-pyridone compound or salt thereof, and pharmaceutical composition and formulation including same” (priority 2017, dated 2021).
Where “and” joins values, the source holds several entries; their conditions need not be identical. Equal values may be shown once. Read-outs that look alike come from different tables or passages of the source.

Experiments:
[1] = test system: HBV; assay: Test Example 1-1: anti-HBV assay in HepG2.2.15 cells (test solution 200 μL/well); type: cell-based, hepatitis B virus; conditions: Hepatitis B virus, culture supernatant
Description: Using HepG2.2.15 cells (Proc. Natl. Acad. Sci. USA, 84, 1005-1009, 1987) which have an HBV genome introduced into a hepatoblastoma cell line, HepG2, and persistently produce a virus, the anti-HBV activity of the representative compounds was evaluated in the following procedure.
The following was used as a medium:
DMEM/F-12, GlutaMAX (manufactured by Invitrogen)+5 μg/mL insulin (manufactured by Wako)+1% penicillin/streptomycin (manufactured by Sigma)+10 mmol/L HEPES (manufactured by Sigma)+50 μmol/L hydrocortisone (manufactured by Sigma)+10% FBS
A mixture of a test compound with dimethyl sulfoxide (DMSO) was further added to the medium to obtain a final concentration of DMSO of 0.25% (v/v), and thus, test solutions containing the test compound at various concentrations were prepared. In addition, a test solution obtained by adding DMSO alone to the medium to obtain a final concentration of 0.25% (v/v) was prepared as a control without addition of a drug.
(1) The HepG2.2.15 cells were suspended in the medium to prepare a. HepG2.2.15 cell suspension at 4×10^5 cells/mL. The suspension was seeded in a 96-well microtiter plate (100 μL/well) and the plate was incubated in a 5% CO2 incubator at 37° C. for 2 days.
(2) The culture supernatant was removed and the cells were washed twice with PBS (−) (100 μL/well).
(3) The test solution (200 μL/well) was added to the plate of (2) and the plate was incubated in a 5% CO2 incubator at 37° C. for 4 days.
(4) The culture supernatant was removed, the test solution (200 μL/well) was added again to the plate, and the plate was incubated in a 5% CO2 incubator at 37° C. for 3 days.
(5) The culture supernatant was collected and treated with a mixture of Buffer AL (manufactured by QIAGEN) and Proteinase K (manufactured by Invitrogen). The amount of DNA of HBV (HBV-DNA) in the obtained solution was absolutely quantified by a real-time PCR method. In addition, HBsAg (hepatitis B surface antigen) in the culture supernatant was absolutely quantified by chemiluminescent enzyme immunoassay using Lumipulse (registered trademark) HBsAg-HQ (manufactured by Fujirebio Inc.). The relative viral load (%) of a well with the compound added to a well without the compound added was calculated. An IC50 of the compound was calculated using a FORECAST function (linear regression method) of Microsoft Office Excel 2007 by plotting the logarithm of the concentration against the relative viral load as a real number.
The IC50 of HBV-DNA was defined as a concentration (or a logarithm dilution of the culture supernatant) of the compound, in which the amount of HBV-DNA is reduced by 50% as compared a control without the compound added.
In addition, the IC50 of HBsAg was defined as a concentration (or a logarithm dilution of the culture supernatant) of the compound, in which the amount of HBsAg is reduced by 50% as compared a control without the compound added.

[2] = test system: HBV genotype C; assay: Test Example 3-2: in vivo efficacy study in PXB mouse (chimeric mouse with human hepatocytes), first and second study; parameters: species or system hepatitis B virus; conditions: first study, individual mice
Description: An in vivo efficacy study with a PXB mouse (a chimeric mouse with human hepatocytes) was carried out in PhenixBio Co., Ltd. 19-Week-or-more-old male mice having body weights of 10.5 g or more after the elapse of 13 weeks or more from the infection with HBV genotype C were allocated into the respective groups and used. The studies were carried out twice, and a 21-day administration withdrawal period was provided between the first study and the second study.
The first administration day in the first study was taken as day 0, and the compound of Example 6-5 was orally administered at 1 mg/kg, 3 mg/kg, 10 mg/kg, and 30 mg/kg twice a day, or 0.5% methylcellulose (vehicle) was orally administered once a day for 14 days. Before administration on day 0, day 3, Day 7, and day 10, and on day 14, the blood was collected from the orbital venous plexus under anesthesia with isoflurane.
The first administration day in the second study was taken as day 35, and the compounds of Examples 19-2 and 20-2 were each orally administered at 3 mg/kg twice a day, or 0.5% methylcellulose (vehicle) was orally administered once a day for 14 days. Before administration on day 35, day 38, day 42, and day 45, the blood was collected from the orbital venous plexus under anesthesia with isoflurane. On day 49, the blood was collected from the heart under anesthesia with isoflurane.
The serum was separated from the collected blood and purified with a QIAamp (registered trademark) DNA Blood Mini Kit (manufactured by QIAGEN). The amount of HBV-DNA in the obtained solution was absolutely quantified by a real-time PCR method. In addition, the amount of HBsAg in the serum was absolutely quantified by chemiluminescent enzyme immunoassay using Lumipulse (registered trademark) HBsAg-HQ (manufactured by Fujirebio Inc.).

[3] = orally 1 mg/kg twice a day, Day 0 (before administration), 1 mg/kg
[4] = orally 1 mg/kg twice a day, Day 3, 1 mg/kg
[5] = orally 1 mg/kg twice a day, Day 7, 1 mg/kg
[6] = orally 1 mg/kg twice a day, Day 14, 1 mg/kg
[7] = orally 3 mg/kg twice a day, Day 0 (before administration), 3 mg/kg
[8] = orally 3 mg/kg twice a day, Day 3, 3 mg/kg
[9] = orally 3 mg/kg twice a day, Day 7, 3 mg/kg
[10] = orally 3 mg/kg twice a day, Day 10, 3 mg/kg
[11] = orally 3 mg/kg twice a day, Day 14, 3 mg/kg
[12] = orally 10 mg/kg twice a day, Day 0 (before administration), 10 mg/kg
[13] = orally 10 mg/kg twice a day, Day 3, 10 mg/kg
[14] = orally 10 mg/kg twice a day, Day 7, 10 mg/kg
[15] = orally 10 mg/kg twice a day, Day 10, 10 mg/kg
[16] = orally 10 mg/kg twice a day, Day 14, 10 mg/kg
[17] = orally 30 mg/kg twice a day, Day 0 (before administration), 30 mg/kg
[18] = orally 30 mg/kg twice a day, Day 3, 30 mg/kg
[19] = orally 30 mg/kg twice a day, Day 7, 30 mg/kg
[20] = orally 30 mg/kg twice a day, Day 10, 30 mg/kg
[21] = orally 30 mg/kg twice a day, Day 14, 30 mg/kg

Question: `COC[C@H]1CCCN1c1nc2ccc(-n3cc(C(=O)O)c(=O)cc3-c3ccc(N4CC[C@@H](OC)C4)cc3)cc2s1` [Example 10-2, 1-(2-((R)-2-(methoxymethyl)pyrrolidin-1-yl)benzo[d]thiazol-6-yl)-6-(4-((R)-3-methoxypyrrolidin-1-yl)phenyl)-4-oxo-1,4-dihydropyridine-3-carboxylic acid] was tested. Which IC50 ([1]; read-out: IC50 HBV-DNA) did it give?
Answer: 5.2 nM

Question: What about the IC50 ([1]; read-out: IC50 HBsAg) of the same compound?
Answer: 2.7 nM

Question: For `COCCN1CCN(c2nc3ccc(-n4cc(C(=O)O)c(=O)cc4-c4ccc(N5CCCC5)c(Cl)c4)cc3s2)CC1` [Example 6-5, 6-(3-chloro-4-(pyrrolidin-1-yl)phenyl)-1-(2-(4-(2-methoxyethyl)piperazine-1-yl)benzo[d]thiazol-6-yl)-4-oxo-1,4-dihydropyridine-3-carboxylic acid], which HBV-DNA in blood [2, 3] is on record?
Answer: 8.4E+08 copies/mL and 1.1E+09 copies/mL

Question: What about the HBsAg in serum [2, 3] of the same compound?
Answer: 1,910 IU/mL and 2,498 IU/mL

Question: What about the HBV-DNA in blood [2, 4] of the same compound?
Answer: 1.6E+09 copies/mL and 7.7E+08 copies/mL

Question: And the HBsAg in serum [2, 4]?
Answer: 2,288 IU/mL and 2,694 IU/mL

Question: And the HBV-DNA in blood [2, 5]?
Answer: 1.4E+09 copies/mL and 1.1E+09 copies/mL

Question: And the HBsAg in serum [2, 5]?
Answer: 2,444 IU/mL and 2,663 IU/mL

Question: And the HBV-DNA in blood ([2]; orally 1 mg/kg twice a day, Day 10)?
Answer: 1.2E+09 copies/mL

Question: What about the HBsAg in serum ([2]; orally 1 mg/kg twice a day, Day 10, 1 mg/kg) of the same compound?
Answer: 1,947 IU/mL and 2,431 IU/mL

Question: And the HBV-DNA in blood [2, 6]?
Answer: 6.8E+08 copies/mL and 6.4E+08 copies/mL

Question: And the HBsAg in serum [2, 6]?
Answer: 1,777 IU/mL and 2,344 IU/mL

Question: And the HBV-DNA in blood [2, 7]?
Answer: 1.8E+09 copies/mL and 9.8E+08 copies/mL

Question: What about the HBsAg in serum [2, 7] of the same compound?
Answer: 2,722 IU/mL and 2,314 IU/mL

Question: What about the HBV-DNA in blood [2, 8] of the same compound?
Answer: 5.7E+08 copies/mL and 5.6E+08 copies/mL

Question: And the HBsAg in serum [2, 8]?
Answer: 972 IU/mL and 1,059 IU/mL

Question: What about the HBV-DNA in blood [2, 9] of the same compound?
Answer: 4.9E+08 copies/mL and 4.0E+08 copies/mL

Question: What about the HBsAg in serum [2, 9] of the same compound?
Answer: 859 IU/mL and 876 IU/mL

Question: What about the HBV-DNA in blood [2, 10] of the same compound?
Answer: 5.7E+08 copies/mL and 6.2E+08 copies/mL

Question: And the HBsAg in serum [2, 10]?
Answer: 959 IU/mL and 1,025 IU/mL

Question: And the HBV-DNA in blood [2, 11]?
Answer: 6.1E+08 copies/mL and 5.2E+08 copies/mL

Question: And the HBsAg in serum [2, 11]?
Answer: 1,012 IU/mL and 837 IU/mL

Question: And the HBV-DNA in blood [2, 12]?
Answer: 1.1E+09 copies/mL and 1.2E+09 copies/mL

Question: What about the HBsAg in serum [2, 12] of the same compound?
Answer: 2,500 IU/mL and 2,409 IU/mL

Question: And the HBV-DNA in blood [2, 13]?
Answer: 8.0E+08 copies/mL and 4.5E+08 copies/mL

Question: What about the HBsAg in serum [2, 13] of the same compound?
Answer: 595 IU/mL and 421 IU/mL

Question: And the HBV-DNA in blood [2, 14]?
Answer: 3.3E+08 copies/mL and 4.0E+08 copies/mL

Question: What about the HBsAg in serum [2, 14] of the same compound?
Answer: 445 IU/mL and 366 IU/mL

Question: What about the HBV-DNA in blood [2, 15] of the same compound?
Answer: 7.3E+08 copies/mL and 3.9E+08 copies/mL

Question: What about the HBsAg in serum [2, 15] of the same compound?
Answer: 394 IU/mL and 329 IU/mL

Question: And the HBV-DNA in blood [2, 16]?
Answer: 4.9E+08 copies/mL and 3.6E+08 copies/mL

Question: What about the HBsAg in serum [2, 16] of the same compound?
Answer: 368 IU/mL and 398 IU/mL

Question: And the HBV-DNA in blood [2, 17]?
Answer: 1.6E+09 copies/mL and 1.2E+09 copies/mL

Question: What about the HBsAg in serum [2, 17] of the same compound?
Answer: 2,291 IU/mL and 2,328 IU/mL

Question: And the HBV-DNA in blood [2, 18]?
Answer: 8.3E+08 copies/mL and 4.4E+08 copies/mL

Question: What about the HBsAg in serum [2, 18] of the same compound?
Answer: 673 IU/mL and 592 IU/mL

Question: What about the HBV-DNA in blood [2, 19] of the same compound?
Answer: 7.5E+08 copies/mL and 3.7E+08 copies/mL

Question: And the HBsAg in serum [2, 19]?
Answer: 458 IU/mL and 370 IU/mL

Question: What about the HBV-DNA in blood [2, 20] of the same compound?
Answer: 8.0E+08 copies/mL and 4.9E+08 copies/mL

Question: And the HBsAg in serum [2, 20]?
Answer: 359 IU/mL and 392 IU/mL

Question: And the HBV-DNA in blood [2, 21]?
Answer: 6.1E+08 copies/mL and 2.6E+08 copies/mL

Question: And the HBsAg in serum [2, 21]?
Answer: 408 IU/mL and 268 IU/mL
